According to publication PMC8445441, “Elucidating the mechanism by which synthetic helper peptides sensitize Pseudomonas aeruginosa to multiple antibiotics” (PLoS Pathogens, 2021):
Where two headings read alike, the source gives them in different places.

Legend:
[1] = system: clinical P. aeruginosa isolates; assay: microbe, parasite or virus in culture; settings: Pseudomonas aeruginosa, 18 h, antibiotic alone
In short: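 MIC is the lowest drug concentration showing no visible growth after 18 h at 37 °C. Two-fold dilutions in MHB were combined with an equal volume of bacterial suspension (about 1 × 10^6 CFU/mL), following CLSI broth microdilution, in triplicate.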

P. aeruginosa AUMC-Pa-6 = assay: microbe, parasite or virus in culture; settings: strain AUMC-Pa-6
In short: (§1)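 CLSI broth dilution; MHB; ~1 × 10^6 CFU/mL suspension mixed equal volume with drug; 37 °C for 18 h; visual read; triplicate. Broth sometimes supplemented with PG, PE, PC, CL, LPS, MgCl2, CaCl2 or PAβN.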

P. aeruginosa AUMC-Pa-4 = assay: microbe, parasite or virus in culture; settings: strain AUMC-Pa-4
In short: as §1

P. aeruginosa AUMC-Pa-5 = assay: microbe, parasite or virus in culture; settings: strain AUMC-Pa-5
In short: as §1

P. aeruginosa PAO1 = assay: microbe, parasite or virus in culture; settings: PAO1
In short: as §1

P. aeruginosa AUMC-Pa-3 = assay: microbe, parasite or virus in culture; settings: strain AUMC-Pa-3
In short: as §1

P. aeruginosa PAK = assay: microbe, parasite or virus in culture; parameters: MICa: MIC of the antibiotic / MICac: MIC of the antibiotic in the combination: unit not given beside the values; settings: strain PAK
In short: as §1

P. aeruginosa ATCC27853 = assay: microbe, parasite or virus in culture; parameters: MICa: MIC of the antibiotic / MICac: MIC of the antibiotic in the combination: unit not given beside the values; settings: strain ATCC27853
In short: as §1

P. aeruginosa NR-31041 = assay: microbe, parasite or virus in culture; parameters: MICa: MIC of the antibiotic / MICac: MIC of the antibiotic in the combination: unit not given beside the values; settings: strain NR-31041
In short: as §1

P. aeruginosa NR-31040 = assay: microbe, parasite or virus in culture; parameters: MICa: MIC of the antibiotic / MICac: MIC of the antibiotic in the combination: unit not given beside the values
In short: as §1

P. aeruginosa PA14 = assay: microbe, parasite or virus in culture; parameters: MICa: MIC of the antibiotic / MICac: MIC of the antibiotic in the combination: unit not given beside the values; settings: strain PA14
In short: as §1

P. aeruginosa AUMC-Pa-2 = settings: strain AUMC-Pa-2; antibiotic + D-11 (MICb/MICbc 64/4)
In short: as §1

P. aeruginosa AUMC-Pa-1 = settings: strain AUMC-Pa-1; antibiotic + D-11 (MICb/MICbc 128/4)
In short: as §1

P. aeruginosa HM-214 = settings: strain HM-214; antibiotic + D-11 (MICb/MICbc 128/4)
In short: as §1

[2] = antibiotic + D-11 (MICb/MICbc 64/4)
[3] = antibiotic alone, unit not given
[4] = with D-11 at MICbc 4, unit not given
[5] = antibiotic + D-11 (MICb/MICbc 128/4)

## CN(C)[C@@H]1C(O)=C(C(N)=O)C(=O)[C@@]2(O)C(O)=C3C(=O)c4c(O)c(NC(=O)CN5CCCC5)cc(F)c4C[C@H]3C[C@@H]12 [Eravacycline]
[1]; read-out: Antibiotic sensibility (MIC) of clinical P. aeruginosa isolate AUMC-Pa-1, strain AUMC-Pa-1
  MIC: 16 µM
[1]; read-out: Antibiotic sensibility (MIC) of clinical P. aeruginosa isolate AUMC-Pa-2, strain AUMC-Pa-2
  MIC: 8 µM
[1]; read-out: Antibiotic sensibility (MIC) of clinical P. aeruginosa isolate AUMC-Pa-3, strain AUMC-Pa-3
  MIC: 8 µM
[1]; read-out: Antibiotic sensibility (MIC) of clinical P. aeruginosa isolate AUMC-Pa-4, strain AUMC-Pa-4
  MIC: 16 µM
[1]; read-out: Antibiotic sensibility (MIC) of clinical P. aeruginosa isolate AUMC-Pa-5, strain AUMC-Pa-5
  MIC: 8 µM
[1]; read-out: Antibiotic sensibility (MIC) of clinical P. aeruginosa isolate AUMC-Pa-6, strain AUMC-Pa-6
  MIC: 8 µM
[1]; read-out: Antibiotic sensibility (MIC) of clinical P. aeruginosa isolate HM-214, strain HM-214
  MIC: 8 µM
[1]; read-out: Antibiotic sensibility (MIC) of clinical P. aeruginosa isolate NR-31040, strain NR-31040
  MIC: 8 µM
[1]; read-out: Antibiotic sensibility (MIC) of clinical P. aeruginosa isolate NR-31041, strain NR-31041
  MIC: 8 µM
P. aeruginosa AUMC-Pa-6; [2]
  FICI: 0.313
P. aeruginosa AUMC-Pa-6; [3]
  MICa: MIC of the antibiotic: 8
P. aeruginosa AUMC-Pa-6; [4]
  MICac: MIC of the antibiotic in the combination: 2
P. aeruginosa AUMC-Pa-4; [5]
  FICI: 0.156
P. aeruginosa AUMC-Pa-4; [3]
  MICa: MIC of the antibiotic: 16
P. aeruginosa AUMC-Pa-4; [4]
  MICac: MIC of the antibiotic in the combination: 2
P. aeruginosa AUMC-Pa-5; [2]
  FICI: 1.063
P. aeruginosa AUMC-Pa-5; [3]
  MICa: MIC of the antibiotic: 8/8
P. aeruginosa AUMC-Pa-5; [4]
  MICac: MIC of the antibiotic in the combination: 8/8
P. aeruginosa PAO1; Pseudomonas aeruginosa, PAO1, 18 h, read-out: MICa: the MIC of antibiotics, S3 Table, antibiotic alone
  MIC: 4 µM
P. aeruginosa PAO1; S3 Table, antibiotic + 2 μM D-11
  FICI: 0.094
P. aeruginosa PAO1; S3 Table, with 2 μM D-11
  MICac: the MIC for the antibiotic in the combination: 0.125 µM
P. aeruginosa PAO1; S3 Table, with 4 μM D-11
  MICac: the MIC for the antibiotic in the combination: 0.0625 µM
P. aeruginosa AUMC-Pa-3; [5]
  FICI: 0.156
P. aeruginosa AUMC-Pa-3; [3]
  MICa: MIC of the antibiotic: 8
P. aeruginosa AUMC-Pa-3; [4]
  MICac: MIC of the antibiotic in the combination: 1
P. aeruginosa PAK; [2]
  FICI: 0.188
P. aeruginosa PAK; [3]
  MICa: MIC of the antibiotic: 8
P. aeruginosa PAK; [4]
  MICac: MIC of the antibiotic in the combination: 1
P. aeruginosa ATCC27853; antibiotic + D-11 (MICb/MICbc 32/4)
  FICI: 0.250
P. aeruginosa ATCC27853; [3]
  MICa: MIC of the antibiotic: 8
P. aeruginosa ATCC27853; [4]
  MICac: MIC of the antibiotic in the combination: 1
P. aeruginosa NR-31041; [2]
  FICI: 0.188
P. aeruginosa NR-31041; [3]
  MICa: MIC of the antibiotic: 8
P. aeruginosa NR-31041; [4]
  MICac: MIC of the antibiotic in the combination: 1
P. aeruginosa NR-31040; Pseudomonas aeruginosa, NR31040, 18 h, read-out: MICa: MIC of the antibiotic
  MIC: 8 µM
P. aeruginosa NR-31040; strain NR-31040, antibiotic + D-11 (MICb/MICbc 128/4)
  FICI: 0.094
P. aeruginosa NR-31040; strain NR-31040, with D-11 at MICbc 4, unit not given
  MICac: MIC of the antibiotic in the combination: 0.5
P. aeruginosa PA14; [5]
  FICI: 0.156
P. aeruginosa PA14; [3]
  MICa: MIC of the antibiotic: 8
P. aeruginosa PA14; [4]
  MICac: MIC of the antibiotic in the combination: 1
P. aeruginosa AUMC-Pa-2
  FICI: 0.313
P. aeruginosa AUMC-Pa-1
  FICI: 0.156
P. aeruginosa HM-214
  FICI: 0.281
